This is an account of results in BindingDB's records for patent US11117900 (Vertex Pharmaceuticals, 2021).

This assay has as its target Serine/threonine-protein kinase ATR (Homo sapiens, UniProt Q13535). The assay can be described thus: Inhibition Assay. On the procedure: Compounds were screened for their ability to inhibit ATR kinase using a radioactive-phosphate incorporation assay. Assays were carried out in a mixture of 50 mM Tris/HCl (pH 7.5), 10 mM MgCl2 and 1 mM DTT. Final substrate concentrations were 10 μM [γ-33P]ATP (3 mCi 33P ATP/mmol ATP, Perkin Elmer) and 800 μM target peptide ([…]) (SEQ ID NO:1).Assays were carried out at 25° C. in the presence of 5 nM full-length ATR. An assay stock buffer solution was prepared containing all of the reagents listed above, with the exception of ATP and the test compound of interest. 13.5 μL of the stock solution was placed in a 96 well plate followed by addition of 2 μL of DMSO stock containing serial dilutions of the test compound (typically starting from a final concentration of 15 μM with 3-fold serial dilutions) in duplicate (final DMSO concentration 7%). The plate was pre-incubated for 10 minutes at 25° C. and the reaction initiated by addition of 15 μL [γ-33P]ATP (final concentration 10 μM).The reaction was stopped after 24 hours by the addition of […] containing 2 mM ATP. A multiscreen phosphocellulose filter 96-well plate (Millipore, Cat no. MAPHNOB50) was pretreated with 100 μL 0.2M phosphoric acid prior to the addition of […] of the stopped assay mixture. The plate was washed with 5×2004 0.2M phosphoric acid. […]

Molecules are shown by their SMILES.

Sequence of Serine/threonine-protein kinase ATR (Q13535 whole entry): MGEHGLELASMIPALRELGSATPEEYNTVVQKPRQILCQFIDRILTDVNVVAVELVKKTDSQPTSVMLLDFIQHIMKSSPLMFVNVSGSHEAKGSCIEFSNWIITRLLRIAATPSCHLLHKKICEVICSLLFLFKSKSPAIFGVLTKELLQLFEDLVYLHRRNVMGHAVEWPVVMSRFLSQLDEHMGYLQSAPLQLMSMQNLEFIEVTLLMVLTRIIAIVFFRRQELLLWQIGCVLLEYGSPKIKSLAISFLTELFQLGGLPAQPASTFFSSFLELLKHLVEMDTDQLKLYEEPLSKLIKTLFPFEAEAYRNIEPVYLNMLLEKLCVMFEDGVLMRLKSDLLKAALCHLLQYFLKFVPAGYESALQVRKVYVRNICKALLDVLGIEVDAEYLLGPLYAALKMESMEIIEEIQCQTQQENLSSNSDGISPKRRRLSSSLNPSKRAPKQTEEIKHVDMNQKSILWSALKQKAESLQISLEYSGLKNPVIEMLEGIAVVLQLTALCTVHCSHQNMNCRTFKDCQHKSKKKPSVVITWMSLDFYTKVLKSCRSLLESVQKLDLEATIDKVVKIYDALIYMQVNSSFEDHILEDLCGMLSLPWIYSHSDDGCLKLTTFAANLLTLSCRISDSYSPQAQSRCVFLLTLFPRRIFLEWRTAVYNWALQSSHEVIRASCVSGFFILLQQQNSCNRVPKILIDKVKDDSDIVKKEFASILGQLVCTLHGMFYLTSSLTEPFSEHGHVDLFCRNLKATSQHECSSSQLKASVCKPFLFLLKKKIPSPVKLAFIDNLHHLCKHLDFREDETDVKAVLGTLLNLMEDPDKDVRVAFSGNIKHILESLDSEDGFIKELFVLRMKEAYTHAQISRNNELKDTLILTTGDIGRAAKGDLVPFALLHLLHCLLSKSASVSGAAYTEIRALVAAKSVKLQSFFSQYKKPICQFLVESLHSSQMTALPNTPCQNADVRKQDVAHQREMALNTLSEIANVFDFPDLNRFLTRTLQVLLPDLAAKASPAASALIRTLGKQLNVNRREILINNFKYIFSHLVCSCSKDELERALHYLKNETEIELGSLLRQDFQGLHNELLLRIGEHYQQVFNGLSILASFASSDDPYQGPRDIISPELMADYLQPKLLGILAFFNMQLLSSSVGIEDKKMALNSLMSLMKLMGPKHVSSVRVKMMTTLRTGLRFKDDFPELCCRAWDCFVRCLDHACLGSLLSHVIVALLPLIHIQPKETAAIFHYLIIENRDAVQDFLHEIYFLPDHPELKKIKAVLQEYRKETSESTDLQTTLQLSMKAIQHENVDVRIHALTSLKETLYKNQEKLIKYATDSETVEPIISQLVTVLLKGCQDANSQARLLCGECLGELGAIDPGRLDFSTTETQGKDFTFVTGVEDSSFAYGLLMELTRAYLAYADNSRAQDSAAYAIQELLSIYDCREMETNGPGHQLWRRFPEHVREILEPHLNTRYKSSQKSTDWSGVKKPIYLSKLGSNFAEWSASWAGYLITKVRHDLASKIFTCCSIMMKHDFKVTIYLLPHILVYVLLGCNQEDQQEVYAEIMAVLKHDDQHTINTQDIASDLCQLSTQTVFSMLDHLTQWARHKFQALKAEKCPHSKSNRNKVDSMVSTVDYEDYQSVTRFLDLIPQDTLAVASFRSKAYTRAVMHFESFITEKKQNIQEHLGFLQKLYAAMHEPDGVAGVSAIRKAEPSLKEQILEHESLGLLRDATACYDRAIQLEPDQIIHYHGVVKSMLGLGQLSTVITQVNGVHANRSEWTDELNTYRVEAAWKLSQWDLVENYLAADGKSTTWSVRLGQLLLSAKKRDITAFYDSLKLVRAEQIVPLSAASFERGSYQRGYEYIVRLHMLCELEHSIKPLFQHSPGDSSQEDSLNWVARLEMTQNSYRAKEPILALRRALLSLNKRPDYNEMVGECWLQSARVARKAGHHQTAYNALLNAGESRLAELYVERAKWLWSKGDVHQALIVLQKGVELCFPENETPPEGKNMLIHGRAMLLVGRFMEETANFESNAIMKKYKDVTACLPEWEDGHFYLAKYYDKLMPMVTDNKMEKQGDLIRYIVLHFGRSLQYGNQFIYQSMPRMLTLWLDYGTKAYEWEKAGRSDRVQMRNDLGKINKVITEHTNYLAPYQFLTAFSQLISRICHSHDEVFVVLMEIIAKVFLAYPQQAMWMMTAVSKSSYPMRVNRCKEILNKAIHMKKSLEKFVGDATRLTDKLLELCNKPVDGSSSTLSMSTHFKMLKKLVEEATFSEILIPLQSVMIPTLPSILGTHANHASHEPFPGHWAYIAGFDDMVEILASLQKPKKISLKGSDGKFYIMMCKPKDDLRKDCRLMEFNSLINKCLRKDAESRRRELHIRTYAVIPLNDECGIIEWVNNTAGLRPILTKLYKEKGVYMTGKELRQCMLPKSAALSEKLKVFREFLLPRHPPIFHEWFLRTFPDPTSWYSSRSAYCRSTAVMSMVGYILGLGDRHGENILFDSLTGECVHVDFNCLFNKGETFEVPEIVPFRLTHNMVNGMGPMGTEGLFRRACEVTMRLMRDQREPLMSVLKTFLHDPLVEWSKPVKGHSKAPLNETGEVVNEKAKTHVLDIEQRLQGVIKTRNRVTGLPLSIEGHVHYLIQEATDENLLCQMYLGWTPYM

`C[N+]1([O-])CCCC(c2ccncc2NC(=O)c2c(N)nn3cc(F)cnc23)C1` (stereo unspecified) [US11117900, Compound I-C-9]: the Ki entry is “in the range around 505 nM”.
